{
  "source": "patent US20080118980A1",
  "about": "“Estrogen Enhancing Differentiation of Human Mesenchymal Stromal Cells and Adipose-derived Stromal Cells” (The Board of Trustees of the University of Illinois,, priority 2006, published 2008)",
  "test_system": "human bone marrow mesenchymal stem cells (MSCs)",
  "test": "Proliferation of human bone marrow MSCs in basic medium with E2 or E3 (MTS, Example 3)",
  "assay_type": "cell-based",
  "protocol": "This study investigates the mitogenic effects of estrogen receptor ligands on human bone marrow MSCs that is not contacted with osteogenic or adipogenic medium. Purified human bone marrow mesenchymal stem cells (MSCs) were purchased commercially. MSCs were respectively exposed to basic medium (DMEM+10% FBS+1% antibiotics), and basic medium supplement with 10^−6 and 10^−9 M 17-β estradiol (E2) and estriol (E3) for approximately one week. Then, various cells were plated into 96-well plates in 500 cells/well and continued to be exposed to the media. After 4 days, cell densities were measured by MTS methods and compared to initial densities. FIG. 8 illustrates the increase of the number of MSCs after being treated with basic medium and basic medium supplemented with E2 or E3.",
  "data": [
    {"smiles": "C[C@]12CC[C@@H]3c4ccc(O)cc4CC[C@H]3[C@@H]1C[C@@H](O)[C@@H]2O", "note": "[E3, estriol]", "values": [
      {"measurement": "cell proliferation (MTS assay and cell counting)", "setting": "10^−6 and 10^−9 M, about one week then 4 days in 96-well plates, FIG. 8", "result": "greatly increased"},
      {"measurement": "differentiation capabilities (adipogenic and osteogenic) of modulated MSCs", "setting": "vs controls", "result": "maintain their differentiation capabilities"}
    ]}
  ]
}
